Test results: patent US8975232B2, “Macrocyclic kinase inhibitors and uses thereof” (President and Fellows of Harvard College, priority 2010, dated 2015)
Several values for one entry are separate records, joined by “and”; a condition that tells them apart may be missing. Identical values can stand only once. *1 amine or outer side, *2 acyl side, *3 side chain or, on linkers, in order; H or OH if unused. Where a SMILES comes first, the peptide text is derived from it. Bridges are numbered along the chain shown (N, C = ends). [ ]: non-standard residue; d: D form. The star is where a group is joined. Ala(E-styryl) = N[C@@H](C/C=C/c1ccccc1)C(=O)O; dBpa = N[C@H](Cc1ccc(C(=O)c2ccccc2)cc1)C(=O)O; Maleoyl = O=C(/C=C\C(=O)[*:2])[*:1]; NH(CH2CH2O)2CH2CH2NH2 = NCCOCCOCCN*; Cha = N[C@@H](CC1CCCCC1)C(=O)O; Dab = NCC[C@H](N)C(=O)O; Dap = NC[C@H](N)C(=O)O

Tests used:
Pim1 = Pim1 (Homo sapiens, UniProt P11309); assay: Z'-LYTE kinase assay (Invitrogen SelectScreen); type: biochemical; conditions: for IC50: Pim1
From the text: (§1) Macrocycles A10-B1-C11-D5 and A10-B8-C11-D5 were enriched 2- to 6-fold upon selection for binding Akt3, MAPKAPK2, Pim1, and VEGFR2 (FIG. 6). These two macrocycles are structurally similar, sharing nitrophenylalanine (A10) and cyclohexylstatine (C11) building blocks as well as the same lysine scaffold (D5), and differ only at the B building block with either furylalanine (B1) or cyclohexylalanine (B8) (FIG. 6). For assay purposes, the macrocycles were synthesized with C-terminal PEG-diamine linkers to aid solubility, and then tested for the ability to inhibit Akt3, MAPKAPK2, Pim1 and VEGFR2.
(§2) Src IC50 determinations and single-point inhibition measurements were performed using Invitrogen's Z′-LYTE Tyr 02 assay kit according to the manufacturer's protocols. All kinase assays were performed at ATP concentrations near KM,ATP values, except where noted otherwise. Active human Src kinase was obtained from Millipore. For kinome profiling and IC50 determinations against non-Src kinases, compounds were submitted to Invitrogen's SelectScreen Kinase Profiling Service.

[1] = target: p38α-MAPKAPK2 kinase cascade (P38α-MK2) (Homo sapiens, UniProt P49137+Q16539); assay: Z'-LYTE kinase cascade assay (Invitrogen SelectScreen); type: biochemical
From the text: as §1, §2

[2] = target: T1, full-length chicken c-Src (Gallus gallus, UniProt P00523); assay: Z'-LYTE kinase assay (Tyr 02 substrate peptide), full-length c-Src; type: biochemical; conditions: for IC50: full-length chicken c-Src, ATP near KM (50 μM)
T1 construct: assayed against full-length chicken c-Src
Description: (§3) For the FRET-based endpoint assay, kinase assays were performed using Invitrogen's Z′-LYTE kinase assay using the Tyr 02 substrate peptide (based upon the optimal Abl substrate peptide […]) according to the manufacturer's instructions. Assays were performed at near KM ATP concentrations for full-length c-Src and full-length c-Src T338I-50 μM and 7 μM, respectively.
Derivatives of MC4 were synthesized by Fmoc solid-phase peptide synthesis and assayed against full-length chicken c-Src using Invitrogen's Z′-LYTE kinase assay. […] Holding the amino acids at the A and C positions constant, variants of MC4 containing phenylalanine, cyclohexylalanine, pentafluorophenylalanine, and N-methyl-phenylalanine at the B position in place of furylalanine were synthesized and assayed.

Abl = target: T2, Abl (Homo sapiens, UniProt P00519); assay: Continuous spectrophotometric kinase activity assay; type: biochemical
T2 construct: human c-Abl (residues 229-512); made in house
T2 sequence (P00519 229-512): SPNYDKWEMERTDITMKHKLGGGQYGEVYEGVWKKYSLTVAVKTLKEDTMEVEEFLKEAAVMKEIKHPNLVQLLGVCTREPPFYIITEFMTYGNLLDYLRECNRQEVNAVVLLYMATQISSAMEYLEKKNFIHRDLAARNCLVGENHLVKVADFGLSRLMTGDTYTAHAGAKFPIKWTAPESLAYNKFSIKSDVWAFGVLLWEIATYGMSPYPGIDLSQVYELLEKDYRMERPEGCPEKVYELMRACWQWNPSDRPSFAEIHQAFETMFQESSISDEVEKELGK
From the text: (§4) Kinase domain constructs of human c-Abl (residues 229-512), chicken c-Src (residues 251-533 and residues 83-533), murine Lck (residues 227-509), and human Hck (residues 166-445) were expressed as previously described (Seeliger, Young et al. 2005; Seeliger, Nagar et al. 2007; the entire contents of each of which are incorporated by reference herein). Mutations were introduced into chicken c-Src (residues 251-533) (T338I, C277Q, L297M) by site-directed mutagenesis and verified by DNA sequencing.
(§5) In vitro kinase inhibition assays were performed using either a continuous spectrophotometric assay or a FRET-based endpoint assay.
(§6) The original characterization of kinase inhibition was performed with a commercial kinase assay that relies on a fluorescently labeled peptide kinase substrate (Z-LYTE, Invitrogen). For further characterization, a continuous spectrophotometric kinase activity assay was employed that is easily adapted to different substrate peptides as well as a wider range of peptide and ATP concentrations.

[3] = target: T3, Src kinase domain (chicken c-Src residues 251-533) (Gallus gallus, UniProt P00523); assay: as above; type: biochemical; conditions: Src kinase domain
T3 construct: chicken c-Src (residues 251-533 and residues 83-533); made in house
From the text: as §4, §5, §6

Lck = target: T4, Lck (Mus musculus, UniProt P06240); assay: as above; type: biochemical, murine
T4 construct: murine Lck (residues 227-509); made in house
From the text: as §4, §5, §6

HCK = HCK (Homo sapiens, UniProt P08631); assay: as above; type: biochemical; set-up: Kinase domain constructs of human c-Abl (residues 229-512), chicken c-Src (residues 251-533 and residues 83-533), murine Lck (residues 227-509), and human Hck (residues 166-445); made in house; conditions: 300 μM Src optimal peptide
From the text: as §4, §5, §6

Src Thr338Ile = assay: Inhibition of Src gatekeeper mutant; type: biochemical, chicken
From the text: as §4, §3

[4] = test system: 3T3 cells (src−/−) stably transfected with c-Src Y529F; assay: Global phosphotyrosine Western blot (4G10) in c-Src Y529F-transfected cells; type: cell-based, murine
Description: Cells were cultured in 48-well tissue culture plates in DMEM+10% FBS until they reached confluence. After removing serum-containing medium, cells were washed with serum-free DMEM, and small molecule inhibitor in serum-free DMEM with 2% DMSO was added to each well and incubated overnight. After incubation with compound, cells were washed once with PBS and lysed in Cell Extraction Buffer (Invitrogen), a modified RIPA buffer, supplemented with PMSF and protease inhibitors according to the manufacturer's instruction. Cell lysates were quantified by BCA assay (Pierce Biotechnology) and an equivalent amount of lysate was loaded into each lane of a 4-12% polyacrylamide gel, and separated by SDS-PAGE. Separated proteins were transferred onto a PVDF membrane, and blocked for one hour with 5% BSA in TBST buffer. The membrane was then incubated overnight at 4° C. with 4G10 anti-phosphotyrosine antibody (Millipore) and a β-tubulin antibody (Sigma) as a loading control. Fluorescent anti-mouse and anti-rabbit secondary antibodies (LI-COR) were added prior to imaging the membrane.
Having obtained macrocycle Src kinase inhibitors with nanomolar in vitro potency, the potency for inhibition of Src kinase activity in living cells was assessed. Since intracellular Src kinase signaling is complex and tightly regulated, a cell culture line transfected with a constitutively active form of murine c-Src was chosen. 3T3 cells (src−/−) stably transfected with c-Src Y529F were compared to 3T3 cells (src−/−) transfected with empty vector. Anti-phosphotryosine Western blotting with the 4G10 antibody (Millipore) indicated a marked difference between global phosphotyrosine levels in the c-Src Y529F transfected cells compared to those transfected with empty vector; in fact, almost all detectable intracellular phosphotyrosine in the Src-transfected cell line was a result of c-Src Y529F and downstream signaling (FIG. 23, upper panel, compare lanes 2 and 3, transfected and trated with DMSO, against lanes 8 and 9, transfected with empty vector).
Briefly, cells were seeded in a 48-well plate and grown to confluence in Dulbecco's Modified Eagle Medium (DMEM) supplemented with 10% fetal bovine serum (FBS). Individual wells were then treated with 10 or 100 μM concentration of macrocycle in serum-free DMEM overnight. After removing the small molecule and washing with phosphate-buffered saline, cells were lysed in radioimmunoprecipitation assay (RIPA) buffer, and global phosphotyrosine levels were quantified by Western blot.

Akt3 = Akt3 (Homo sapiens, UniProt Q9Y243); assay: Z'-LYTE kinase assay (Invitrogen SelectScreen); type: biochemical; conditions: isolated kinase enzyme
From the text: as §1, §2

MAPKAPK2 (MK2) = MAPKAPK2 (MK2) (Homo sapiens, UniProt P49137); assay: Z'-LYTE kinase assay (Invitrogen SelectScreen); type: biochemical; conditions: isolated kinase enzyme
From the text: as §1, §2

VEGFR2 (KDR) = VEGFR2 (KDR) (Homo sapiens, UniProt P35968); assay: Z'-LYTE kinase assay (Invitrogen SelectScreen); type: biochemical
From the text: as §1, §2

[5] = 5 μM ATP, 100 μM Src optimal peptide
[6] = 5 μM ATP, 300 μM Src optimal peptide
[7] = 250 μM ATP, 300 μM Src optimal peptide

T4 sequence (P06240 227-509): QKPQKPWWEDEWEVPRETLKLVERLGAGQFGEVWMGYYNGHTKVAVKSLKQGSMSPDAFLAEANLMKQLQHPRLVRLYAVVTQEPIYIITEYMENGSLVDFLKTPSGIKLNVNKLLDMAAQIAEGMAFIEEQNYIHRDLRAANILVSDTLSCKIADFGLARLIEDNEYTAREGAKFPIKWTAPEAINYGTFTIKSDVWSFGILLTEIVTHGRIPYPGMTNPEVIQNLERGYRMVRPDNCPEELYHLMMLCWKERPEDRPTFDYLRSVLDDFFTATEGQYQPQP
Chain of p38α-MAPKAPK2 kinase cascade (P38α-MK2) (Q16539 whole entry): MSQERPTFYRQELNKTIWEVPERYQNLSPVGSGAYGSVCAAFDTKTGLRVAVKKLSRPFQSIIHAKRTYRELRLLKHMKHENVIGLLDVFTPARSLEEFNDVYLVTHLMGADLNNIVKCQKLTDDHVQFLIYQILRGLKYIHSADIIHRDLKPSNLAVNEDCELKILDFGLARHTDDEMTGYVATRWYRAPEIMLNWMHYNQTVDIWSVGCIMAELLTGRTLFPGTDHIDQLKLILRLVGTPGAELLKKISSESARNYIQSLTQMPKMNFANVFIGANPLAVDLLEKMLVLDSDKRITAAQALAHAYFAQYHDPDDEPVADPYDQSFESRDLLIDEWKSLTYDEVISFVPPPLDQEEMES
Chain of p38α-MAPKAPK2 kinase cascade (P38α-MK2) (P49137 whole entry): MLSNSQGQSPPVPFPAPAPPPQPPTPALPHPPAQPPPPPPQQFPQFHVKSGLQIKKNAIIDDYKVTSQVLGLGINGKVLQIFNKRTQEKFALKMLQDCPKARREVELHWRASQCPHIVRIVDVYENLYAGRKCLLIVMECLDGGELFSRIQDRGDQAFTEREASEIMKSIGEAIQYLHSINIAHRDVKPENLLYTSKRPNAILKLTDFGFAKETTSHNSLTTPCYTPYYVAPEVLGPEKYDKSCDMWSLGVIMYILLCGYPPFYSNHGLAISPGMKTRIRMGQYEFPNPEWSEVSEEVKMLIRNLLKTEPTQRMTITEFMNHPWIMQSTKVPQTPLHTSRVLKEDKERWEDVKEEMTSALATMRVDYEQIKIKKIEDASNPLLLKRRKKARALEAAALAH
Chain of Pim1 (P11309 whole entry): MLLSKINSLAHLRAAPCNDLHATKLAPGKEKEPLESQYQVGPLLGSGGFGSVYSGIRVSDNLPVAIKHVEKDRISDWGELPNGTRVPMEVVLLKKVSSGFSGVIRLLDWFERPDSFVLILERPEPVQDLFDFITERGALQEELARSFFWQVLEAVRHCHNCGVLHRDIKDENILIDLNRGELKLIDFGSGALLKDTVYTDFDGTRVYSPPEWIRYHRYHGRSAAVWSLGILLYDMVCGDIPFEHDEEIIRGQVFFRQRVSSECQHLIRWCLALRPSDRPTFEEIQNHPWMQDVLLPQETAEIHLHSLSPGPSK
Chain of VEGFR2 (KDR) (P35968 20-1356): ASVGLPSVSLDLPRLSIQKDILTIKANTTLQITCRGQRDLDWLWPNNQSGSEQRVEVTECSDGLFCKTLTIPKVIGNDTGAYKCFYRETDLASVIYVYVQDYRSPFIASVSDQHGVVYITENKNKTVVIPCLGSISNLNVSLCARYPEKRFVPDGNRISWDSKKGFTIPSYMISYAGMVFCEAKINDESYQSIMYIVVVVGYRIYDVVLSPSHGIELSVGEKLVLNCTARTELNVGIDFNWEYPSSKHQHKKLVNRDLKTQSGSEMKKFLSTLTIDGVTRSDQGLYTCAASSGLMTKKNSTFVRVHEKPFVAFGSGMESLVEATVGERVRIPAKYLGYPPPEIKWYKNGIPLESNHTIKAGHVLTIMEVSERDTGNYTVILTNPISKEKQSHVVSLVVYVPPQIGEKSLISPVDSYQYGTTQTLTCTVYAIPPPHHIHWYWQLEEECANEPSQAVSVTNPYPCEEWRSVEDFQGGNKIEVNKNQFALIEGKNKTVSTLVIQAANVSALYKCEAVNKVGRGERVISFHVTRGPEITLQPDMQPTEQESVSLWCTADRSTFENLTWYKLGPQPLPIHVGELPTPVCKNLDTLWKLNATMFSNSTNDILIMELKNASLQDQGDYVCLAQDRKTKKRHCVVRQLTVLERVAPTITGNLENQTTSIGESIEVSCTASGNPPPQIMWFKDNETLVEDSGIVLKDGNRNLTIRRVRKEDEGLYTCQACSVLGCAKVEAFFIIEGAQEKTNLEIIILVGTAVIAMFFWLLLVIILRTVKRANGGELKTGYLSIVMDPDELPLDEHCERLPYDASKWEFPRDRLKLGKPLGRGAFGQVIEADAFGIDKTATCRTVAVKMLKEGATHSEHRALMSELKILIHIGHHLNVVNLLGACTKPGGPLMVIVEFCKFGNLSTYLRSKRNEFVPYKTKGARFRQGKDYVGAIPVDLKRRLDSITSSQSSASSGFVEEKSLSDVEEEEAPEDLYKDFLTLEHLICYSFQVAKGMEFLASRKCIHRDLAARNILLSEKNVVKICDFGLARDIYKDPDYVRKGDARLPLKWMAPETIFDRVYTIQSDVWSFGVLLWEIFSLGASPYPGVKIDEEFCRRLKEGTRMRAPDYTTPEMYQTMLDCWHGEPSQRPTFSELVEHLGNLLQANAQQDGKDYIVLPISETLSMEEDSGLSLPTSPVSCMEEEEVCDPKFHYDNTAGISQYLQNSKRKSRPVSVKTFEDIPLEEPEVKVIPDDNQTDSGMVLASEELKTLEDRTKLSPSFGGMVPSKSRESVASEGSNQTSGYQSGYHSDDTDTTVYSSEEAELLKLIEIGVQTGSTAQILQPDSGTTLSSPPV
Chain of HCK (P08631 262-515 limits assumed): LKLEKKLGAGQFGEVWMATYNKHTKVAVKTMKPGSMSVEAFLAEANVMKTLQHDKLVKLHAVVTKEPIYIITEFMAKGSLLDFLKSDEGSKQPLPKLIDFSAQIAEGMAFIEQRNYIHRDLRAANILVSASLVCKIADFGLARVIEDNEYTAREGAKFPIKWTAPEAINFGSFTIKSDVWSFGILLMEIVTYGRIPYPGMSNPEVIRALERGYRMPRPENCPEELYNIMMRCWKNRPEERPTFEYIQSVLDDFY
Chain of MAPKAPK2 (MK2) (P49137 whole entry): as the sequence (P49137 whole entry) above
Chain of Akt3 (Q9Y243 whole entry): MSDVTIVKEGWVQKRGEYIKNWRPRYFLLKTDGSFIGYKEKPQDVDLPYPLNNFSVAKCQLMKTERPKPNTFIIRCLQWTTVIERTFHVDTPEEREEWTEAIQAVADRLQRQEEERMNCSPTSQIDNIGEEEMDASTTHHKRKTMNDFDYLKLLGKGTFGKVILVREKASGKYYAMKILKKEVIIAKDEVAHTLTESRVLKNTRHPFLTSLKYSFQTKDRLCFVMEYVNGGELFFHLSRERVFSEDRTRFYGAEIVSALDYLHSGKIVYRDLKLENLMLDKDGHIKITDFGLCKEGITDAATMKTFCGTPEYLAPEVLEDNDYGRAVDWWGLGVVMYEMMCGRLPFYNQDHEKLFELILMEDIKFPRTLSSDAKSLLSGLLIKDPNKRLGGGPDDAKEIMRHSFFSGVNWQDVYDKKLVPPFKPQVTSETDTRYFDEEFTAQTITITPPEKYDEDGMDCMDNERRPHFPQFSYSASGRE

NCCOCCOCCNC(=O)[C@@H]1CCNC(=O)/C=C\C(=O)N[C@@H](C/C=C/c2ccccc2)C(=O)N[C@@H](CC2CCCCC2)C(=O)N[C@H](Cc2ccc(C(=O)c3ccccc3)cc2)C(=O)N1 [cis-A12-B8-C10-D3] ([Ala(E-styryl)][Cha][dBpa][Dab]-{NH(CH2CH2O)2CH2CH2NH2}; linker N-4 via Maleoyl)
IC50 (Pim1): 25 µM
IC50 [1]: 12 µM

NCCOCCOCCNC(=O)[C@@H]1CNC(=O)/C=C\C(=O)N[C@@H](C/C=C/c2ccccc2)C(=O)N[C@@H](CC2CCCCC2)C(=O)N[C@H](Cc2ccc(C(=O)c3ccccc3)cc2)C(=O)N1 [cis-A12-B8-C10-D4] ([Ala(E-styryl)][Cha][dBpa][Dap]-{NH(CH2CH2O)2CH2CH2NH2}; linker N-4 via Maleoyl)
IC50 (Pim1): 100 µM
IC50 [1]: 20 µM

NC(=O)[C@@H]1CCCNC(=O)[C@H](Cc2ccc([N+](=O)[O-])cc2)NC(=O)[C@H](Cc2ccccc2)NC(=O)[C@H](CC2CC2)NC(=O)/C=C/C(=O)N1 [MC4.1]
increase in Src inhibition potency relative to parent macrocycle [2]: 3 fold
IC50 [2]: 0.08 µM
IC50 (Abl; [5]): > 100 µM
IC50 (Abl; [6]): > 100 µM
IC50 (Abl; [7]): > 100 µM
IC50 [3, 5]: 0.6 µM
IC50 [3, 6]: 0.8 µM
IC50 [3, 7]: 1.8 µM
IC50 (Lck; [5]): 5.2 µM
IC50 (Lck; [6]): 5.5 µM
IC50 (Lck; [7]): 10 µM
IC50 (HCK; 5 μM ATP): 6.3 µM
IC50 (HCK; 250 μM ATP): 11 µM

NC(=O)[C@@H]1CCCNC(=O)[C@H](Cc2ccc([N+](=O)[O-])cc2)NC(=O)[C@H](Cc2ccccc2)NC(=O)[C@H](CC2CCCCC2)NC(=O)/C=C/C(=O)N1 [MC4.2]
increase in Src inhibition potency relative to parent macrocycle [2]: > 10 fold
IC50 [2]: 0.006 µM
IC50 [3, 5]: 0.6 µM
inhibition of Src Thr338Ile gatekeeper mutant (in words) (Src Thr338Ile): retained their inhibition potency
reduction of global phosphotyrosine levels (in words) ([4]; 10 or 100 μM macrocycle overnight): modest reduction
EC50 ([4]; overnight treatment, serum-free DMEM, read-out: EC50 of reduction of global phosphotyrosine levels): > 100 µM

NCCOCCOCCNC(=O)[C@@H]1CCCCNC(=O)[C@H](Cc2ccc([N+](=O)[O-])cc2)NC(=O)[C@H](Cc2ccco2)NC(=O)C[C@H](O)[C@H](CC2CCCCC2)NC(=O)/C=C\C(=O)N1 [cis-A10-B1-C11-D5]
inhibition of Akt3 (in words) (Akt3): did not inhibit
inhibition of MAPKAPK2 (in words) (MAPKAPK2 (MK2)): did not inhibit
inhibition of Pim1 (in words) (Pim1; isolated kinase enzyme, non-DNA-linked form): did not inhibit
increase of VEGFR2 enzyme activity (VEGFR2 (KDR); 10 μM macrocycle): 70%
increase of VEGFR2 enzyme activity (VEGFR2 (KDR); 100 μM compound): 300%
IC50 [1]: 6.4 µM and 6.5 µM
